Columns and labels:
[1] = test system: Microsporum fulvum; test: Antifungal growth inhibition assay in 96 well microtitre plates (A595); type: cell-based
Experimental: (§1) The inhibitory effects of the plant defensins on the growth of Trichophyton rubrum, T. interdigitale, Microsporum fulvum and C. albicans (obtained from the National Mycology Reference Centre, South Australia Pathology at the Women's and Children's Hospital, Adelaide, Australia) are measured essentially as described by Broekaert et al. (1990) FEMS Microbiol Lett 69:55-59. Spores of T. rubrum, T. interdigitale and M. fulvum are isolated from sporulating fungus growing on 1⁄2 strength Sabouraud dextrose agar (SDA). Spores were removed from the plates by the addition of 1⁄2 strength potato dextrose broth (PDB). C. albicans cells are grown in Yeast Peptone Broth (YPD) for 16 h. Spore and cell concentrations are measured using a hemocytometer. Antifungal assays are conducted in 96 well microtitre plates essentially as herein described. Wells are loaded with 20 μm L of filter sterilized (0.22 μm syringe filter, Millipore) defensin (10× stock for each final concentration) or water and 80 μm L of 5×10^4 spores/mL (T. rubrum, T. interdigitale, M. fulvum) or 5,000 cells/mL (C. albicans) in 1⁄2 strength PDB. The plates are incubated at 30° C. Fungal growth is assayed by measuring optical density at 595 nm ([…]) using a microtitre plate reader (SpectraMax Pro M2; Molecular Devices. Growth is allowed to proceed until the optical density (OD) of the fungus in the absence of any test defensin reached an OD of 0.2. Each test is performed in duplicate.

[2] = test system: Trichophyton rubrum; test: as above; type: cell-based
Experimental: as §1

[3] = test system: T. interdigitale; test: as above; type: cell-based, Trichophyton interdigitale
Experimental: as §1

[4] = test system: C. albicans; test: as above; type: cell-based, Candida albicans
Experimental: as §1

[5] = test system: Trichophyton rubrum, T. interdigitale, Microsporum fulvum and C. albicans; test: Inhibition assays, summary across the range of fungal pathogens; type: cell-based; details: summary of Table 3
Experimental: as §1

[6] = test system: clinical isolates of T. rubrum; test: Cell survival assay for clinical isolates of T. rubrum (plating after incubation); type: cell-based, Trichophyton rubrum; details: incubated with 100 µg/mL HXL008 for 72 h, plated on Sabouraud dextrose agar, 5 days at 30° C.
Experimental: After incubation for 72 h, the media from wells containing clinical isolates of T. rubrum incubated with 100 […] HXL008 was plated onto fresh Sabouraud dextrose agar. Plates were incubated at 30° C. for 5 days to allow colonies to develop before being photographed.

[7] = test system: Trichophyton rubrum; test: Inhibition of the growth of Trichophyton rubrum over 28 days; type: cell-based
Experimental: The inhibitory effect of HXL008 on the growth of Trichophyton rubrum (obtained from the National Mycology Reference Centre, South Australia Pathology at the Women's and Children's Hospital, Adelaide, Australia) was monitored over 28 days.
Spores of T. rubrum, are isolated from sporulating fungus growing on ½ strength Sabouraud dextrose agar. Spores are removed from the plates by the addition of ½ strength potato dextrose broth (PDB). Spore and cell concentrations are measured using a hemocytometer.
Spores were diluted to a concentration of 5×10^4 spores/mL in ½ PBD (2 mL) containing 0, 10 or 50 μg/mL HXL008. Cultures are incubated at 30 C without shaking. After 24 h, 100 μL of each culture is extracted and plated onto ½ SDA plates. An additional 100 uL of ½ PDB is then added containing either 0, 20 or 100 μg of HXL008. SDA plates are then incubated at 30 C for 5 days. This process is repeated every 24 h for 28 days. After 15 days, the culture containing no HXL008 becomes too thick to pipette and is no longer used in the assay.

[8] = Penetration through human nails (nail adapter, wetted cotton bud receptor, RP-HPLC); type: in vitro ADME
Experimental: Penetration of NaD1 through human nails was measured according to the method of Hui et al. (2002) J Pharm Sci 91(1):189-195. Human toenails were obtained from ScienceCare (USA) and washed with phosphate buffered saline (details, PBS) before being placed on a kimwipe that had been soaked in PBS for 3 h to rehydrate the nail. […]
The cotton bud in contact with the underside of the nail was removed after 24 h and every 24 h following. Protein that had passed through the nail was recovered from the cotton bud by washing twice with 500 μL of 0.1% v/v trifluoroacetic acid. Recovered protein was quantified using RP-HPLC.

[9] = test system: Escherichia coli; test: Inhibition of the growth of Escherichia coli; type: cell-based; details: 0.1625 μM to 10 μM, 18 hours at 37° C., OD595
Experimental: A single E. coli colony was used to inoculate 5 ml of Luria-Bertani media and grown overnight at 37° C. The following day, the optical density of the culture was measured and the E. coli diluted to an optical density at 600 nm (OD600) of 0.01 in Mueller-Hinton Broth. Diluted E. coli were added to 96-well plates with defensins at concentrations of 10 μM, 5 μM, 2.5 μM, 1.25 μM, 0.625 μM, 0.3125 μM or 0.1625 μM. Plates were read at OD595 to obtain time zero data points. Plates were incubated at 37° C. for 18 hours before reading again at OD595 to assess the amount of E. coli growth.

[10] = test system: Human monocytic lymphoma (U937) cells; type: cell-based
Experimental: Human monocytic lymphoma (U937) cells are cultured in RPMI-1640 medium. All culture media are supplemented with 5-10% v/v fetal calf serum, 100 U/ml of penicillin, and 100 μg/ml of streptomycin. Cell lines are cultured at 37° C. in a humidified atmosphere containing 5% v/v CO2. Adherent cell lines are detached from the flask by adding a mixture containing 0.25% v/v trypsin and […] EDTA. A flow cytometry-based propidium iodide (PI) uptake assay is performed to analyze the ability of plant defensins to permeabilize U937 cells (essentially as described in Poon et al, 2014). Briefly, cells are suspended to 1×10^6 cells/ml in 0.1% v/v BSA/RPMI-1640 and incubated with plant defensins (10 μM) at 37° C. for 30 min Samples are added to PBS containing a final concentration of 1 μg/ml PI and placed on ice. Samples are then analyzed immediately using the BD FACSCanto II Flow Cytometer and BD FACSDiva software v6.1.1. The resultant flow cytometry data is analyzed using FlowJo software v8.8.6. Cells are gated appropriately based on forward scatter and side scatter and cell permeabilization is defined by PI-positive staining.

Row | Substance | IC50 against M. fulvum [1] [µg/mL] | IC50 against T. rubrum [2] [µg/mL] | IC50 against T. interdigitale [3] [µg/mL] | IC50 against C. albicans [4] [µg/mL] | Antifungal activity across the range of fungal pathogens [5] | Surviving colonies on agar plates [6] | Visible growth of T. rubrum in culture ([7]; 10 μg/mL or 50 μg/mL, over the duration of the assay (28 days)) | T. rubrum cells killed ([7]; 50 μg/mL, within 24 h) | T. rubrum cells dead ([7]; after 20 days of treatment) | Surviving colonies per plate ([7]; after 20 days of treatment, 100 μL of culture plated) [colony] | Nail penetration [8] | Inhibition of growth of E. coli [9] | Cells permeabilized (PI-positive) [10]
1 | HXL008: Class I plant defensin from Picramnia pentandra, SEQ ID NO:1 (KVCTKPSKFFKGLCGTDGACTTACRKEGLHSGYCQLKGFLNSVCVCRKHC; HXL008 Picramnia pentandra) | 7 | 3 | 3.5 | 20 | the most effective plant defensins across the range of fungal pathogens | 1-3 colonies | did not display any visible growth | more than 80% | more than 99.5% | ≤ 1 | able to penetrate nails faster and more effectively than the active ingredients of current topical onychomycosis therapies | did not inhibit growth of E. coli at the concentrations tested | less than 2%
2 | NaD1: Solanaceous Class II plant defensin from Nicotiana alata, SEQ ID NO:18 (RECKTESNTFPGICITKPPCRKACISEKFTDGHCSKILRRCLCTKPC; NaD1 Nicotiana alata) | 5.3 | 8 | 10 | 20 |  |  |  |  |  |  | able to penetrate nails faster and more effectively than the active ingredients of current topical onychomycosis therapies | did not inhibit growth of E. coli at the concentrations tested | 33%
3 | HXL004: Class I plant defensin from Nicotiana benthamiana, SEQ ID NO:7 (Table 1) (RTCESQSHRFKGLCFSRSNCASVCHTEGFNGGHCRGFRRRCFCTRHC; HXL004 Nicotiana benthamiana) | 12 | 27.5 | 19 | 20 | intermediate activity |  |  |  |  |  | able to penetrate nails faster and more effectively than the active ingredients of current topical onychomycosis therapies | inhibited the growth of E. coli in a concentration dependent manner | 13%
4 | LL37: human antimicrobial peptide used as a control (LLGDFFRKSKEKIGKEFKRIVQRIKDFLRNLVPRTES; Antibacterial peptide LL-37; UniProt P49913 134-170, looked up) [reference compound] |  |  |  |  |  |  |  |  |  |  |  | inhibited the growth of E. coli in a concentration dependent manner | 

Source: patent US10010576B2, “Method of treatment” (Hexima Limited, priority 2014, dated 2018)
